# Legend:
# [1] = test system: Meloidogyne spp. (Root-knot nematode); assay: Meloidogyne spp. contact activity, preventive, pouch test (cucumber); type: in vivo; settings: cucumber seed in pouch, test solutions at 200 ppm, galls per root system after twelve days; cis vs trans isomers
# Method: (§1) Meloidogyne spp. (Root-knot nematode) contact activity, preventive. Pouch test. Filter papers (9 cm×4.5 cm) with a small pocket were placed into plastic pouches (12 cm×6 cm). One cucumber cv. Toshka seed was placed in the centre of the filter paper pocket of all the pouches needed for a test. The cucumber seeds in the pouches were treated with test solutions at 200 ppm by pipetting the solution directly over the cucumber seed in the filter paper pocket in the pouch. Prior to application, the compound solution was prepared at twice the concentration required and the egg suspension is prepared with FORL nutrient solution with 3000 eggs/0.5 ml. After applying all the treatments, 3000 eggs (in 0.5 ml of FORL nutrient solution) were pipetted into the pouches. The pouches were incubated in a moist chamber for twelve days and watered regularly to maintain good filter paper moisture essential for the growing cucumber root system. After this period, the filter paper containing the germinated cucumber seedling was removed from the plastic pouch to assess the number of galls caused by Meloidogyne spp. per root system. […] Meloidogyne spp. (Root-knot nematode) contact activity, preventive, drench test. Cucumber cv. Toshka seeds were sown directly into pots filled with a sandy substrate. Six days later pots were each treated with 5 ml of a WP10 suspension of the test compound at 20 ppm. Hereafter pots were inoculated with 3000 eggs of M. incognita. The trial was harvested fourteen days after trial application and inoculation. Root galling was assessed according to Zeck's gall index (Zeck, 1971).
# [2] = test system: Meloidogyne spp. (Root-knot nematode); assay: Meloidogyne spp. contact activity, preventive, drench test (cucumber in pots); type: in vivo, M. incognita; settings: cis vs trans isomers
# Method: as §1, with “Filter” for “Meloidogyne spp. (Root-knot nematode) contact activity, preventive. Pouch test. Filter”
SMILES,"Nem 1 (Meloidogyne spp. contact activity, preventive, pouch test; % galling) [1] [%]",melting point [°C],"Nem 2 (Meloidogyne spp. contact activity, preventive, drench test; % galling) [2] [%]"
O=C(N[C@@H]1CCC1c1ccc(Cl)cc1Cl)c1ccccc1C(F)(F)F (some centres unmarked) [57.009],100,126 to 128,
O=C(N[C@H]1CCC1c1ccc(Cl)cc1Cl)c1ccccc1C(F)(F)F (stereo partly drawn) [57.009trans],68,147 to 148,48
O=C(NC1CCC1c1ccc(Cl)cc1Cl)c1cccnc1C(F)(F)F (centres unmarked) [57.011],100,,100
O=C(NC1CCC1c1ccc(Cl)cc1Cl)c1ncccn1 (centres unmarked) [57.012],98,,83
O=C(NC1CCC1c1ccc(Cl)cc1F)c1c(F)cccc1F (centres unmarked) [57.014],93,,100
